Laboratory results: paper PMC5423977, “Safety, pharmacokinetics, and pharmacodynamics of BMS-986142, a novel reversible BTK inhibitor, in healthy participants” (European Journal of Clinical Pharmacology, 2017)

Assay: Safety and tolerability (adverse events), Study 1 SAD in healthy participants
Format: in vivo, human
[1] = Study 1 SAD group, BMS-986142-treated
[2] = Study 1 SAD, all BMS-986142 doses, n = 36

Structure (SMILES): Cc1c(-c2c(F)cc(C(N)=O)c3[nH]c4c(c23)CC[C@H](C(C)(C)O)C4)cccc1-n1c(=O)c2cccc(F)c2n(C)c1=O [BMS-986142, 6-fluoro-5-(R)-(3-(S)-(8-fluoro-1-methyl-2,4-dioxo-1,2-dihydroquinazolin-3(4H)-yl)-2-methylphenyl)-2-(S)-(2-hydroxypropan-2-yl)-2,3,4,9-tetrahydro-1H-carbazole-8-carboxamide]
- AE: Polyuria (SAD 100 mg, n = 6): 1 (16.7) n (%)
- AE: Syncope (SAD 100 mg, n = 6): 0 n (%)
- AE: Tension headache (SAD 100 mg, n = 6): 1 (16.7) n (%)
- AE: Thermal burn (SAD 100 mg, n = 6): 0 n (%)
- AE: Toothache (SAD 100 mg, n = 6): 0 n (%)
- AE: Upper respiratory tract infection (SAD 100 mg, n = 6): 0 n (%)
- AE: Vomiting (SAD 100 mg, n = 6): 1 (16.7) n (%)
- Total participants with an event (SAD 100 mg, n = 6): 2 (33.3) n (%)
- AE SOC: Gastrointestinal Disorders (SAD 300 mg, n = 6): 1 (16.7) n (%)
- AE SOC: General disorders and administration site conditions (SAD 300 mg, n = 6): 0 n (%)
- AE SOC: Infections and infestations (SAD 300 mg, n = 6): 0 n (%)
- AE SOC: Injury, poisoning and procedural complications (SAD 300 mg, n = 6): 0 n (%)
- AE SOC: Musculoskeletal and connective tissue disorders (SAD 300 mg, n = 6): 0 n (%)
- AE SOC: Nervous system disorders (SAD 300 mg, n = 6): 0 n (%)
- AE SOC: Renal and urinary disorders (SAD 300 mg, n = 6): 0 n (%)
- AE SOC: Respiratory, thoracic and mediastinal disorders (SAD 300 mg, n = 6): 0 n (%)
- AE: Aphthous stomatitis (SAD 300 mg, n = 6): 0 n (%)
- AE: Chest pain (SAD 300 mg, n = 6): 0 n (%)
- AE: Contusion (SAD 300 mg, n = 6): 0 n (%)
- AE: Cough (SAD 300 mg, n = 6): 0 n (%)
- AE: Diarrhoea (SAD 300 mg, n = 6): 0 n (%)
- AE: Dizziness (SAD 300 mg, n = 6): 0 n (%)
- AE: Headache (SAD 300 mg, n = 6): 0 n (%)
- AE: Lip Dry (SAD 300 mg, n = 6): 1 (16.7) n (%)
- AE: Muscle spasms (SAD 300 mg, n = 6): 0 n (%)
- AE: Nausea (SAD 300 mg, n = 6): 0 n (%)
- AE: Paraesthesia (SAD 300 mg, n = 6): 0 n (%)
- AE: Polyuria (SAD 300 mg, n = 6): 0 n (%)
- AE: Syncope (SAD 300 mg, n = 6): 0 n (%)
- AE: Tension headache (SAD 300 mg, n = 6): 0 n (%)
- AE: Thermal burn (SAD 300 mg, n = 6): 0 n (%)
- AE: Toothache (SAD 300 mg, n = 6): 0 n (%)
- AE: Upper respiratory tract infection (SAD 300 mg, n = 6): 0 n (%)
- AE: Vomiting (SAD 300 mg, n = 6): 0 n (%)
- Total participants with an event (SAD 300 mg, n = 6): 1 (16.7) n (%)
- AE SOC: Gastrointestinal Disorders (SAD 900 mg, n = 6): 2 (33.3) n (%)
- AE SOC: General disorders and administration site conditions (SAD 900 mg, n = 6): 1 (16.7) n (%)
- AE SOC: Infections and infestations (SAD 900 mg, n = 6): 1 (16.7) n (%)
- AE SOC: Injury, poisoning and procedural complications (SAD 900 mg, n = 6): 0 n (%)
- AE SOC: Musculoskeletal and connective tissue disorders (SAD 900 mg, n = 6): 0 n (%)
- AE SOC: Nervous system disorders (SAD 900 mg, n = 6): 2 (33.3) n (%)
- AE SOC: Renal and urinary disorders (SAD 900 mg, n = 6): 0 n (%)
- AE SOC: Respiratory, thoracic and mediastinal disorders (SAD 900 mg, n = 6): 1 (16.7) n (%)
- AE: Aphthous stomatitis (SAD 900 mg, n = 6): 0 n (%)
- AE: Chest pain (SAD 900 mg, n = 6): 1 (16.7) n (%)
- AE: Contusion (SAD 900 mg, n = 6): 0 n (%)
- AE: Cough (SAD 900 mg, n = 6): 1 (16.7) n (%)
- AE: Diarrhoea (SAD 900 mg, n = 6): 1 (16.7) n (%)
- AE: Dizziness (SAD 900 mg, n = 6): 1 (16.7) n (%)
- AE: Headache (SAD 900 mg, n = 6): 2 (33.3) n (%)
- AE: Lip Dry (SAD 900 mg, n = 6): 0 n (%)
- AE: Muscle spasms (SAD 900 mg, n = 6): 0 n (%)
- AE: Nausea (SAD 900 mg, n = 6): 1 (16.7) n (%)
- AE: Paraesthesia (SAD 900 mg, n = 6): 1 (16.7) n (%)
- AE: Polyuria (SAD 900 mg, n = 6): 0 n (%)
- AE: Syncope (SAD 900 mg, n = 6): 0 n (%)
- AE: Tension headache (SAD 900 mg, n = 6): 0 n (%)
- AE: Thermal burn (SAD 900 mg, n = 6): 0 n (%)
- AE: Toothache (SAD 900 mg, n = 6): 0 n (%)
- AE: Upper respiratory tract infection (SAD 900 mg, n = 6): 1 (16.7) n (%)
- AE: Vomiting (SAD 900 mg, n = 6): 0 n (%)
- Total participants with an event (SAD 900 mg, n = 6): 2 (33.3) n (%)
- AE SOC: Gastrointestinal Disorders (SAD any dose, n = 36): 5 (13.9) n (%)
- AE SOC: General disorders and administration site conditions (SAD any dose, n = 36): 1 (2.8) n (%)
- AE SOC: Infections and infestations (SAD any dose, n = 36): 2 (5.6) n (%)
- AE SOC: Injury, poisoning and procedural complications (SAD any dose, n = 36): 1 (2.8) n (%)
- AE SOC: Musculoskeletal and connective tissue disorders (SAD any dose, n = 36): 1 (2.8) n (%)
- AE SOC: Nervous system disorders (SAD any dose, n = 36): 5 (13.9) n (%)
- AE SOC: Renal and urinary disorders (SAD any dose, n = 36): 1 (2.8) n (%)
- AE SOC: Respiratory, thoracic and mediastinal disorders (SAD any dose, n = 36): 1 (2.8) n (%)
- AE: Aphthous stomatitis (SAD any dose, n = 36): 1 (2.8) n (%)
- AE: Chest pain (SAD any dose, n = 36): 1 (2.8) n (%)
- AE: Contusion (SAD any dose, n = 36): 1 (2.8) n (%)
- AE: Cough (SAD any dose, n = 36): 1 (2.8) n (%)
- AE: Diarrhoea (SAD any dose, n = 36): 1 (2.8) n (%)
- AE: Dizziness (SAD any dose, n = 36): 1 (2.8) n (%)
- AE: Headache (SAD any dose, n = 36): 4 (11.1) n (%)
- AE: Lip Dry (SAD any dose, n = 36): 1 (2.8) n (%)
- AE: Muscle spasms (SAD any dose, n = 36): 1 (2.8) n (%)
- AE: Nausea (SAD any dose, n = 36): 1 (2.8) n (%)
- AE: Paraesthesia (SAD any dose, n = 36): 1 (2.8) n (%)
- AE: Polyuria (SAD any dose, n = 36): 1 (2.8) n (%)
- AE: Syncope (SAD any dose, n = 36): 0 n (%)
- AE: Tension headache (SAD any dose, n = 36): 1 (2.8) n (%)
- AE: Thermal burn (SAD any dose, n = 36): 1 (2.8) n (%)
- AE: Toothache (SAD any dose, n = 36): 0 n (%)
- AE: Upper respiratory tract infection (SAD any dose, n = 36): 2 (5.6) n (%)
- AE: Vomiting (SAD any dose, n = 36): 1 (2.8) n (%)
- Total participants with an event (SAD any dose, n = 36): 8 (22.2) n (%)
- Number of AEs reported [1]: 22 AEs
- Participants with AEs [1]: 8 participants
- AE: Cough [2]: 1 (2.8) n (%)
- AE: Diarrhea [2]: 1 (2.8) n (%)
- AE: Dizziness [2]: 1 (2.8) n (%)
- AE: Headache/tension headache [2]: 5 (13.9) n (%)
- AE: Nausea [2]: 1 (2.8) n (%)
- AE: Thermal burns [2]: 1 (2.8) n (%)
- AE: Upper respiratory tract infection [2]: 2 (5.6) n (%)
- Subjects with AEs [2]: 8 (22.2) n (%)
- Tolerability (healthy participants, alone and in combination with MTX (studies 1 and 2)): generally well tolerated
